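Exposure lasted 48 hours, with cells grown in 96-well plates and compounds tested at five concentrations. TGI marks complete inhibition of growth.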

Common to all, as to experiment: growth of human tumour cells (NCI), 48 h
Assay [1] has as its system M14 melanoma.
The test system of assay [2] is COLO 205 colon.
For assay [3], the system named is SNB-75 CNS.
Assay [4] relates to K-562 leukemia.
Assay [5] relates to SK-MEL-5 melanoma.
Assay [6] has as its system SF-295 CNS.
Assay [7] deals with A549 NSCLC.
The subject of assay [8] is NCI/ADR-RES ovarian.
Assay [9] concerns 786-0 renal.
The subject of assay [10] is ACHN renal.
For assay [11], the system named is HCC-2998 colon.
The subject of assay [12] is MALME-3M melanoma.
For assay [13], the system named is A498 renal.

Turning to `Cc1ccc(/C(O)=C/c2nc3ccccc3nc2NC23CC4CC(CC(C4)C2)C3)cc1`, the TGI in assay [1], in assay [2], in assay [3], in assay [4], in assay [5] and in [6] was above 10 µM throughout. The TGI in assay [7], in assay [8], in assay [9], in [10], in assay [11] and in assay [12] was above 10 µM throughout.
For `O=c1[nH]nc(Cc2ccccc2)n1N=C1CCCCC1`, the TGI in [13], in assay [1], in [2], in assay [4], in assay [5] and in assay [6] was above 100 µM throughout. The TGI in [7], in assay [8], in [9], in [10] and in [12] was above 100 µM each time.
Consider `N#Cc1cccc(Nc2ccccc2SSc2ccccc2Nc2cccc(C#N)c2)c1`, for which the TGI in assay [1] is 18.6 µM; in [3] it was above 21.5 µM; in assay [4] it was above 21.5 µM; in assay [5], 17 µM; in [6] it was above 21.5 µM; in [7], above 21.5 µM. The TGI in assay [8] was 19.7 µM; in [9], 12 µM; in assay [10], above 21.5 µM; in assay [11] it was above 21.5 µM; in [12], 15.8 µM.
For `CCCCn1c(C)c(C)c2c1NN=C(C#N)S2(=O)=O`, the TGI in assay [1], in [2], in assay [3], in assay [4], in [5] and in assay [7] was above 100 µM in each case. Also, the TGI in [8], in [9], in assay [10], in assay [11] and in assay [12] was above 100 µM each time.
Regarding `CCC(C)C1=C(O)[N+]2([O-])Oc3ccc(-c4c(O)c(O)c(-c5ccc(O)cc5)c(OC(C)=O)c4OC(C)=O)cc3OC2(C(C)CC)C(=O)N1O` (configuration not stated), the TGI in [13], in assay [1], in [2], in assay [3], in assay [4] and in assay [5] was above 50 µM throughout. The TGI in assay [6], in assay [7], in assay [8], in assay [9], in assay [10] and in assay [12] was above 50 µM throughout.
Consider `Cc1ccc(-n2nnc3c(NNc4ccccc4)n[nH]c(=O)c32)cc1`, for which the TGI in [1], in assay [2], in assay [3], in assay [4], in assay [5] and in assay [6] was above 100 µM throughout. Further, the TGI in assay [7], in assay [8], in assay [9], in assay [10], in assay [11] and in [12] was above 100 µM each time.
Regarding `COc1nc(N)nc2c1n(C)c[n+]2C`, the TGI in assay [13], in assay [1], in assay [2], in assay [3], in assay [4] and in assay [5] was above 100 µM in each case. Besides, the TGI in assay [6], in [7], in assay [8], in [9], in assay [10] and in assay [12] was above 100 µM each time.
In the case of `N#Cc1c(-c2cccc(Br)c2)cc(-c2ccc(Cl)cc2)nc1N`, the TGI in assay [1] came to 41.1 µM; in assay [2], 27.2 µM; in assay [4], 81.9 µM; in [5], 30.7 µM; in [6], 35.5 µM; in assay [7], 57 µM. Moreover, the TGI in [8] was found to be 55.6 µM; in assay [9], 42.4 µM; in assay [10] it was 51.8 µM; in assay [11] it was 34 µM; in assay [12] it was 70.9 µM.
For `COc1ccc2c(c1OC)C(Br)CCC(Br)(Br)C2=O` (configuration not stated), the TGI in [13] was 29.4 µM; in assay [1] it was 18.3 µM; in assay [2] it was 10.1 µM; in assay [4], 11.6 µM; in [5], 14.7 µM; in [6], 32.5 µM. Further, the TGI in assay [7] is 29 µM; in assay [8] it was 40.2 µM; in assay [9] it was 15.3 µM; in assay [10], 3.81 µM; in [11] it was 23.7 µM; in assay [12], 22.6 µM.
For `CCOC(=O)c1nc2cc(F)c(F)cc2nc1NCc1cc(OC)c(OC)c(OC)c1`, the TGI in assay [13], in assay [1], in assay [2], in assay [3], in assay [5] and in assay [6] was above 100 µM each time. The TGI in assay [7], in [8], in [9], in [10] and in assay [12] was above 100 µM in each case.
With `Cc1nc(C)c(N2CCN(C(=O)NC(CCC(=O)O)C(=O)O)CC2)c(=O)[nH]1` (configuration not stated), the TGI in [13], in [1], in [2], in assay [4], in assay [6] and in assay [7] was above 100 µM throughout. Further, the TGI in assay [8], in assay [9], in [10], in assay [11] and in assay [12] was above 100 µM throughout.
Consider `CN(O)C(=O)c1ccc(OCc2cccc(Cl)c2)cc1`, for which the TGI was above 100 µM in assay [13]; above 50 µM in [1]; above 100 µM in assay [2]; above 100 µM in assay [3]; above 100 µM in [4]; above 100 µM in assay [5]. Moreover, the TGI in [6] was above 82.8 µM; in assay [7] it was above 100 µM; in [8] it was above 89.4 µM; in [9], 53.1 µM; in assay [10], above 68.3 µM; in assay [11] it was above 53.3 µM.
Regarding `COc1ccccc1-c1n[nH]c(-c2ccccc2O)n1`, the TGI in assay [13], in assay [1], in assay [2], in [3], in assay [4] and in assay [5] was above 100 µM each time. For the same compound, the TGI in assay [6], in [7], in [8], in [9], in assay [10] and in assay [11] was above 100 µM throughout.
As to `CCOC(=O)C12C3CCC1C2C(=O)C3` (configuration not stated), the TGI in assay [1], in [2], in assay [3], in assay [4], in [5] and in assay [6] was above 100 µM throughout. The TGI in assay [7], in assay [8], in assay [9], in assay [10], in assay [11] and in assay [12] was above 100 µM throughout.
Regarding `CCCCC1=C(C(=O)N2CCOCC2)C2(OCCO2)C1Cl` (configuration not stated), the TGI is above 100 µM in assay [13]; 33.9 µM in assay [1]; 54.3 µM in assay [2]; above 100 µM in assay [3]; 39.6 µM in assay [5]; above 100 µM in assay [6]. Also, the TGI is 48.9 µM in assay [7]; above 100 µM in assay [8]; above 100 µM in assay [9]; 52.1 µM in assay [10]; above 100 µM in assay [12].
As for `COC1/C=C/C(C)C(C(C)C(OC)C(C)CCC(=O)C(C)C(CC(=O)O)OC)OC(=O)/C=C/C=C(\C)CC(OC)C(OC)C2=CC(=O)O[C@@H](C(C)C(OC)CC(OC)/C=C/C(C)C(O)C1)[C@H]2O` (some centres not stated), the TGI in assay [13] is 0.365 µM; in assay [1], 0.0739 µM; in assay [2], above 1.07 µM; in assay [3] it was 0.0982 µM; in assay [4], above 1.07 µM; in assay [5] it was 0.242 µM. For the same compound, the TGI was 0.261 µM in assay [6]; 0.437 µM in [7]; 0.47 µM in assay [8]; 0.12 µM in assay [9]; above 1.07 µM in assay [10]; above 1.07 µM in [11].
Regarding `O=c1oc2ccccc2cc1-c1nc2ccccc2c(=O)[nH]1`, the TGI in [1], in assay [2], in assay [3], in assay [4], in [5] and in assay [6] was above 100 µM in each case. The TGI in assay [7], in assay [8], in [9], in assay [10], in assay [11] and in [12] was above 100 µM each time.

The values are drawn from PubChem BioAssay (NCI).
